Test results published in patent US10201624B2, “Triazine based radiopharmaceuticals and radioimaging agents” (Molecular Insight Pharmaceuticals, Inc., priority 2013, dated 2019).
One block for each compound: values may come before it.

How the values were obtained:
[1] = test system: LNCaP cell xenografts; experiment: tissue distribution of ^177Lu-labeled compounds in mice bearing LNCaP xenografts; type: in vivo; conditions: for concentration in kidneys compared with tumor: 4 hours post administration; for concentration in LNCap tumor: 24 hours and 96 hours post administration compared with 4 hours; for clearance from the kidneys: over a period of 96 hours
Experimental: All animal studies were approved by the Institute for Animal Care and Use Committee in accordance with the guidelines set forth by the U.S. Public Health Service Policy on Humane Care and Use of Laboratory Animals. Mice were housed under standard conditions in approved facilities with 12 hour light/dark cycles and given food and water ad libitum. Male athymic NCr-nu/nu mice were purchased from Taconic. For inoculation in mice, LNCaP cells were resuspended at 10^7 cells/ml in a 1:1 mixture of cell culture medium:Matrigel (BD Biosciences). Each mouse was injected in the right flank with 0.25 ml of the cell suspension. Mice were used for tissue distribution studies when the tumors reached approximately 100-400 mm^3.
A quantitative analysis of the tissue distribution of ^177Lu-labeled compounds was performed in separate groups of male NCr-nu/nu mice bearing LNCaP cell xenografts. The compounds were administered via the tail vein as a bolus injection (approximately 10 μCi/mouse) in a constant volume of 0.05 mL. The animals (n=5/time point) were euthanized by asphyxiation with carbon dioxide at the indicated time points after injection. Tissues, for example, blood, heart, lungs, liver, spleen, kidneys, stomach, large and small intestines (with contents), testes, skeletal muscle, bone, brain, adipose, and tumor were dissected, excised, weighed wet, and counted in an automated γ-counter. Tissue time-radioactivity levels were expressed as percent injected dose per gram of tissue (% ID/g).

[2] = test system: LNCaP xenografts; experiment: in vivo efficacy: inhibition of LNCaP tumor growth; parameters: species or system mice; conditions: 450 μCi per mouse, intravenous
Experimental: FIG. 5 illustrates the in vivo efficacy of an exemplary lutetium complex of the invention to inhibit the growth of LNCaP tumors in mice. Arrest of tumor growth was determined by administering 450 μCi of the lutetium complex of (2S)-2-(3-((1S)-1-caroxy-5-(11-(4-(4-(dimethylamino)-6-((4-((1,4,7,10-tetrakis(carboxymethyl)-1,4,7,10-tetraazacyclododecan-2-yl)methyl)phenyl)amino)-1,3,5-triazin-2-yl)piperazin-1-yl)undecanamido)pentyl)ureido)pentanedioic acid to each mouse in the study group. Mice in the control group were administered saline. Tumor volumes in the test and control group of mice were measured twice weekly.
All animal studies were approved by the Institute for Animal Care and Use Committee in accordance with the guidelines set forth by the U.S. Public Health Service Policy on Humane Care and Use of Laboratory Animals. Mice were housed under standard conditions in approved facilities with 12 hour light/dark cycles and given food and water ad libitum. Male athymic NCr-nu/nu mice were purchased from Taconic. […]
Mice bearing LNCaP xenografts having an average volume of ˜100-500 mm^3, were randomly assigned to a control group or a treatment group (n=10 mice per group). […] Tumor dimensions were measured twice weekly with digital calipers and tumor volumes were calculated using the formula ([…]Π×width^2×length)/6. […]

[3] = target: T1, PSMA (Homo sapiens, UniProt Q04609); experiment: ^68Ga-PSMA PET/CT imaging of a subject having prostate cancer; type: in vivo
T1 construct: from tissue; host or cells: in vivo: prostate tissue, lymph node and bone lesions of a subject having prostate cancer
T1 sequence (Q04609 whole entry): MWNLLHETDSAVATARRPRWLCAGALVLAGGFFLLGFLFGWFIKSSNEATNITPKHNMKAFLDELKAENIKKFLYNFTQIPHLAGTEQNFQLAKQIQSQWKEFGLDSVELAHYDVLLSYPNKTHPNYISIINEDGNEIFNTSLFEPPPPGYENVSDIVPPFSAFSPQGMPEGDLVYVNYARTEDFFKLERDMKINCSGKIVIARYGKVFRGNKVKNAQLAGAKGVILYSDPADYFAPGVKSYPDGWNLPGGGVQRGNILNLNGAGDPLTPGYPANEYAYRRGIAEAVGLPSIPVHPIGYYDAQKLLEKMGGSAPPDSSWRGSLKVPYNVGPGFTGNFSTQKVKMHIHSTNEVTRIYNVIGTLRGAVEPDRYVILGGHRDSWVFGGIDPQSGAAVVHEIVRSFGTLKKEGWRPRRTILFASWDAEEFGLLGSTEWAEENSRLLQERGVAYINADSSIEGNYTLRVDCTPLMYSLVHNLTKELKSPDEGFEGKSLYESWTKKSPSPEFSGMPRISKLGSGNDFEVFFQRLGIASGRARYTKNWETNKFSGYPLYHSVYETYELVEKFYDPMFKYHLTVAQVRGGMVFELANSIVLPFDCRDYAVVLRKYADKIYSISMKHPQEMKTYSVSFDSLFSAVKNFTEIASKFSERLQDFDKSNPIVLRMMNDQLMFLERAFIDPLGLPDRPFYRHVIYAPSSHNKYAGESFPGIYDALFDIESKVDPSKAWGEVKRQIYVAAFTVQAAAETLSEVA
Experimental: According to another embodiment of the invention, radiometal complexes of Formula I and Formula II compounds were used for imaging prostate cancer and accompanying metastasis in a subject. Briefly, ^68Ga was complexed to (2S)-2-(3-((1S)-1-carboxy-5-(11-(4-(4-(dimethylamino)-6-((4-((1,4,7,10-tetrakis(carboxymethyl)-1,4,7,10-tetraazacyclododecan-2-yl)methyl)phenyl)amino)-1,3,5-triazin-2-yl)piperazin-1-yl)undecanamido)pentyl)ureido)pentanedioic acid and the resultant complex was administered to a subject having prostate cancer. The subject was then imaged at 1 hour and 3 hours post administration of the inventive ^68Ga complex using, for example, a ^68Ga-PSMA PET/CT scanner. […] Overall, this imaging study supports the use of radiometal complexes of the inventive compounds as suitable agents for radioimaging of cancers, such as prostate cancer.

[4] = extended study, 3 weeks post administration
[5] = extended study, between 24 hours to 96 hours
[6] = ^177Lu complex, LNCap xenograft mice, tail vein bolus

Compound: ^68Ga complex of (2S)-2-(3-((1S)-1-carboxy-5-(11-(4-(4-(dimethylamino)-6-((4-((1,4,7,10-tetrakis(carboxymethyl)-1,4,7,10-tetraazacyclododecan-2-yl)methyl)phenyl)amino)-1,3,5-triazin-2-yl)piperazin-1-yl)undecanamido)pentyl)ureido)pentanedioic acid [Example 17]
tissue accumulation in radiographic image ([3]; FIG. 6): accumulates in the lacrimal and salivary glands, kidney, liver, and urinary bladder
PSMA specific lesions in radiographic image ([3]; imaged at 1 hour and 3 hours post administration): detected in the lymph nodes and bone, in addition to the prostate tissue itself
imaging agent visible in bladder ([3]; visible at hour 1): cleared by the 3-hour scan

Compound: O=C(O)CCOCCOCCNc1nc(Nc2ccc(CC3CN(CC(=O)O)CCN(CC(=O)O)CCN(CC(=O)O)CCN3CC(=O)O)cc2)nc(N2CCN(CCCCCCCCCCC(=O)NCCCC[C@H](NC(=O)N[C@@H](CCC(=O)O)C(=O)O)C(=O)O)CC2)n1 (stereo partly drawn) [complex (A), ^177Lu-complex of (2S)-2-(3-(1-carboxy-5-(11-(4-(4-((2-(2-(2-carboxyethoxy)ethoxy)ethyl)amino)-6-((4-((1,4,7,10-tetrakis(carboxymethyl)-1,4,7,10-tetraazacyclododecan-2-yl)methyl)phenyl)amino)-1,3,5-triazin-2-yl)piperazin-1-yl)undecanamido)pentyl)ureido)pentanedioic acid, metal not drawn]
concentration in kidneys compared with tumor [1]: greater in kidneys than in tumor
concentration in LNCap tumor [1]: remained unchanged
concentration in kidneys and tumor compared with other tissues [1, 6]: concentrate in kidneys and tumor to a greater extent than other tissues
clearance from the kidneys [1]: rapidly cleared from the kidneys

Compound: ^177Lu-complex of (21S,25S)-8,15,23-trioxo-1-(4-((1,4,7,10-tetrakis(carboxymethyl)-1,4,7,10-tetraazacyclododecan-2-yl)methyl)phenylamino)-1 thioxo-2,7,16,22,24-pentaazaheptacosane-21,25,27-tricarboxylic acid [complex (C), reference compound]
concentration in kidneys compared with tumor [1]: greater in kidneys than in tumor
concentration in LNCap tumor [1]: decreases
concentration in kidneys and tumor compared with other tissues [1, 6]: concentrate in kidneys and tumor to a greater extent than other tissues

The next lines start with results.

intracellular concentration in LNCaP tumor cells ([1]; extended study, 1 week post administration): no appreciable change
intrarenal concentration ([1]; extended study, 1 week post administration compared with within eight hours): significantly lower
intratumoral concentration [1, 4]: decrease
concentration in kidney [1, 5]: decreases
concentration in tumor [1, 5]: no observable change
concentration in kidneys and tumor as a function of time ([1]; extended study, first eight hours post administration): gradual increase
Compound: CN(C)c1nc(Nc2ccc(CC3CN(CC(=O)O)CCN(CC(=O)O)CCN(CC(=O)O)CCN3CC(=O)O)cc2)nc(N2CCN(CCCCCCCCCCC(=O)NCCCC[C@H](NC(=O)N[C@@H](CCC(=O)O)C(=O)O)C(=O)O)CC2)n1 (stereo partly drawn) [complex (D), ^177Lu-complex of (2S)-2-(3-((1S)-1-carboxy-5-(11-(4-(4-(dimethylamino)-6-((4-((1,4,7,10-tetrakis(carboxymethyl)-1,4,7,10-tetraazacyclododecan-2-yl)methyl)phenyl)amino)-1,3,5-triazin-2-yl)piperazin-1-yl)undecanamido)pentyl)ureido)pentanedioic acid, metal not drawn]
concentration in kidneys and tumor compared with other tissues ([1]; extended biodistribution study, shorter time intervals post administration): concentrates to a greater extent in kidneys and tumor than other tissues
decrease in tumor concentration compared with decrease in intrarenal concentration [1, 4]: less compared to the decrease in the intrarenal concentration
LNCaP tumor volumes compared with volume at the start of the study [2]: decrease to values lower than the tumor volume at the start of the study
tumor volumes compared with saline control group ([2]; measured twice weekly): significantly lower

concentration in kidneys compared with tumor [1]: greater in kidneys than in tumor
concentration in LNCap tumor [1]: remained unchanged
clearance from the kidneys [1]: rapidly cleared from the kidneys
Compound: O=C(O)CC[C@H](NC(=O)N[C@@H](CCCCNC(=O)CCCCCCCCCCN1CCN(c2nc(Nc3ccc(CC4CN(CC(=O)O)CCN(CC(=O)O)CCN(CC(=O)O)CCN4CC(=O)O)cc3)nc(N3CCCCC3)n2)CC1)C(=O)O)C(=O)O (stereo partly drawn) [complex (B), ^177Lu-complex of (2S)-2-(3-((1S)-1-carboxy-5-(11-(4-(4-(piperidin-1-yl)-6-((4-((1,4,7,10-tetrakis(carboxymethyl)-1,4,7,10-tetraazacyclododecan-2-yl)methyl)phenyl)amino)-1,3,5-triazin-2-yl)piperazin-1-yl)undecanamido)pentyl)ureido)pentanedioic acid, metal not drawn]
concentration in kidneys and tumor compared with other tissues [1, 6]: concentrate in kidneys and tumor to a greater extent than other tissues
